In ChEMBL document CHEMBL5212743, “Selectivity Literature for EUbOPEN Chemogenomics Library wave 3” (2023) one finds % of control and % of inhibition data, which are given here for seven compounds.

The target in assay [1] is Death-associated protein kinase 1 (Homo sapiens) (UniProt P53355). As to the kind of experiment: Selectivity interaction (KinomeScan (DiscoverX)) EUB0000586a DAPK1. The conditions noted are these: at 1 µM.
Assay [2] concerns the target 5-hydroxytryptamine receptor 3A (Homo sapiens) (UniProt P46098). As to the kind of experiment: Selectivity interaction (GPCR panel (PDSP screen)) EUB0000586a HTR3A. To be noted: at 10 µM.
The target in assay [3] is Serine/threonine-protein kinase tousled-like 1 (Homo sapiens) (UniProt Q9UKI8). Nature of the assay: Selectivity interaction (KinomeScan (DiscoverX)) EUB0000586a TLK1. To be noted: at 1 µM.
Assay [4] concerns the target Kappa-type opioid receptor (Homo sapiens, UniProt P41145). Nature of the assay: Selectivity interaction (GPCR panel (PDSP screen)) EUB0000586a OPRK1. The conditions noted are these: at 10 µM.
The target in assay [5] is T1, D(1B) dopamine receptor (Homo sapiens, UniProt P21918). As to the kind of experiment: Selectivity interaction (GPCR panel (PDSP screen)) EUB0000586a DRD5. The conditions noted are these: at 10 µM.
Assay [6] has as its target T2, Serine/threonine-protein kinase 38-like (Homo sapiens, UniProt Q9Y2H1). As to the kind of experiment: Selectivity interaction (KinomeScan (DiscoverX)) EUB0000586a STK38L. To be noted: at 1 µM.
Assay [7] addresses Ribosomal protein S6 kinase alpha-2 (Homo sapiens) (UniProt Q15349). As to the kind of experiment: Selectivity interaction (KinomeScan (DiscoverX)) EUB0000586a RPS6KA2. To be noted: at 1 µM.
Assay [8] deals with Serine/threonine-protein kinase 24 (Homo sapiens) (UniProt Q9Y6E0). As to the kind of experiment: Selectivity interaction (KinomeScan (DiscoverX)) EUB0000586a STK24. The conditions noted are these: at 1 µM.
Assay [9] has as its target Ribosomal protein S6 kinase alpha-6 (Homo sapiens) (UniProt Q9UK32). Nature of the assay: Selectivity interaction (KinomeScan (DiscoverX)) EUB0000586a RPS6KA6. The conditions noted are these: at 1 µM.
Assay [10] addresses Ribosomal protein S6 kinase alpha-1 (Homo sapiens) (UniProt Q15418). As to the kind of experiment: Selectivity interaction (KinomeScan (DiscoverX)) EUB0000586a RPS6KA1. To be noted: at 1 µM.
The target of assay [11] is Serine/threonine-protein kinase Nek4 (Homo sapiens) (UniProt P51957). Nature of the assay: Selectivity interaction (KinomeScan (DiscoverX)) EUB0000549a NEK4. To be noted: at 1 µM.
For assay [12], the target named is T3, Cytoplasmic tyrosine-protein kinase BMX (Homo sapiens) (UniProt P51813).
T3 sequence (whole entry): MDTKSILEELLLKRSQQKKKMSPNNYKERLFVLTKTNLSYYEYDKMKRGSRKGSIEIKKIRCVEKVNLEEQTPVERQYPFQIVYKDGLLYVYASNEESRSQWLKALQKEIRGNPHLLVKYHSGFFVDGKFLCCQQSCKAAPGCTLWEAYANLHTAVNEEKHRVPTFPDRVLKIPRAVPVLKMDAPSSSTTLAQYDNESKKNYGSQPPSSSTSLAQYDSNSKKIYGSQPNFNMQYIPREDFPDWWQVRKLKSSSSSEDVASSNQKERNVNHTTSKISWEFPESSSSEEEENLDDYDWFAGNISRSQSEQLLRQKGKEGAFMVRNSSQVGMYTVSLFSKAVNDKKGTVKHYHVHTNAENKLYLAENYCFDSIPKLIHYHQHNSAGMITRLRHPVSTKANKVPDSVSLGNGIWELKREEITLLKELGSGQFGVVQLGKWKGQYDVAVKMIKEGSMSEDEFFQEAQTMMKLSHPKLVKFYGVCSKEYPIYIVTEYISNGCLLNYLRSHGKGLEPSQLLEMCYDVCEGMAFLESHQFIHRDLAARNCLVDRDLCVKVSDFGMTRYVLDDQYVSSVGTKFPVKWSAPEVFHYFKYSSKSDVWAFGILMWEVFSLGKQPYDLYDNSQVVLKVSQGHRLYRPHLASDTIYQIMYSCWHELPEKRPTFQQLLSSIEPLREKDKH
As to the kind of experiment: Selectivity interaction (KinomeScan (DiscoverX)) EUB0000549a BMX. The conditions noted are these: at 1 µM.

Assay [13] has as its target T2, Serine/threonine-protein kinase 38-like. As to the kind of experiment: Selectivity interaction (KinomeScan (DiscoverX)) EUB0000549a STK38L. To be noted: at 1 µM.
Assay [14] concerns the target Transient receptor potential cation channel subfamily M member 6 (Homo sapiens) (UniProt Q9BX84). As to the kind of experiment: Selectivity interaction (KinomeScan (DiscoverX)) EUB0000549a TRPM6. To be noted: at 1 µM.
The target of assay [15] is T4, Serine/threonine-protein kinase LATS2 (Homo sapiens) (UniProt Q9NRM7).
T4 sequence (whole entry): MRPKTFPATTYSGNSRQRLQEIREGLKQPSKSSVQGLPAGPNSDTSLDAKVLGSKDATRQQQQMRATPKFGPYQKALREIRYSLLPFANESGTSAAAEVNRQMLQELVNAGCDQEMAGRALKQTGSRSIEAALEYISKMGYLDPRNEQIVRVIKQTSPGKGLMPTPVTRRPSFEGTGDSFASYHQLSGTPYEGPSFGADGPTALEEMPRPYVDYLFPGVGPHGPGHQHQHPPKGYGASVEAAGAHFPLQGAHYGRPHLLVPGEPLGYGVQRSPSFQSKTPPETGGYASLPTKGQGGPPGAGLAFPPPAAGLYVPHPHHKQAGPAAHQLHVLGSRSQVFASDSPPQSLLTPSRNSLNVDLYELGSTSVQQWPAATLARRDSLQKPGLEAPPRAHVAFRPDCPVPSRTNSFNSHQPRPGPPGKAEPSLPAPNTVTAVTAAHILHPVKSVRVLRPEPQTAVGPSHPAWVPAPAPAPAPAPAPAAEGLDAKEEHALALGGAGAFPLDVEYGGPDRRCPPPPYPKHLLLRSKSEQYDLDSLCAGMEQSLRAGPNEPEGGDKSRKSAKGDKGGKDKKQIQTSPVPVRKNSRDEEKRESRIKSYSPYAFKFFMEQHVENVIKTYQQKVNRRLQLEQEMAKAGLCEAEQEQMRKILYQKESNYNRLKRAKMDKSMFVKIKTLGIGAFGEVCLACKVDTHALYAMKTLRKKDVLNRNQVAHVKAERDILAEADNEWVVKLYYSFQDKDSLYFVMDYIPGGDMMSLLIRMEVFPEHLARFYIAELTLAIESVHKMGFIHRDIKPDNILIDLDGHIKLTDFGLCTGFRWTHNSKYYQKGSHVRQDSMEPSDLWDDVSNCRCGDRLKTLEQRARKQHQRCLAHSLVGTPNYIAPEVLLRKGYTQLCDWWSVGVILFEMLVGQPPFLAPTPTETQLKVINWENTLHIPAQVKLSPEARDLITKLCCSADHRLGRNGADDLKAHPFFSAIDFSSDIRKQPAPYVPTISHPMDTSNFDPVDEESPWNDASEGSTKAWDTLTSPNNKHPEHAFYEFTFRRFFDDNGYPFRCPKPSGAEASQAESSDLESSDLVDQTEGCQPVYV
As to the kind of experiment: Selectivity interaction (KinomeScan (DiscoverX)) EUB0000740a LATS2. The conditions noted are these: at 1 µM.

Assay [16] has as its target Ephrin type-A receptor 5 (Homo sapiens) (UniProt P54756). As to the kind of experiment: Selectivity interaction (KinomeScan (DiscoverX)) EUB0000740a EPHA5. To be noted: at 1 µM.
In the next assay the target is Aurora kinase B (Homo sapiens, UniProt Q96GD4). As to the kind of experiment: Selectivity interaction (KinomeScan (DiscoverX)) EUB0000740a AURKB. The conditions noted are these: at 1 µM.
Assay [17] addresses Atypical kinase COQ8B, mitochondrial (Homo sapiens) (UniProt Q96D53). Nature of the assay: Selectivity interaction (KinomeScan (DiscoverX)) EUB0000740a ADCK4. To be noted: at 1 µM.
The target of assay [18] is T2, Serine/threonine-protein kinase 38-like. As to the kind of experiment: Selectivity interaction (KinomeScan (DiscoverX)) EUB0000352a STK38L. The conditions noted are these: at 1 µM.
Assay [19] concerns the target Leucine-rich repeat serine/threonine-protein kinase 2 (Homo sapiens, UniProt Q5S007). As to the kind of experiment: Selectivity interaction (KinomeScan (DiscoverX)) EUB0000352a LRRK2. To be noted: at 1 µM.
For assay [20], the target named is Sodium-dependent dopamine transporter (Homo sapiens, UniProt Q01959). Nature of the assay: Selectivity interaction (Eurofins-Panlabs screen (receptors)) EUB0000352a SLC6A3. The conditions noted are these: at 10 µM.
Assay [21] addresses T5, Phosphatidylinositol 5-phosphate 4-kinase type-2 gamma (Homo sapiens) (UniProt Q8TBX8).
T5 sequence (whole entry): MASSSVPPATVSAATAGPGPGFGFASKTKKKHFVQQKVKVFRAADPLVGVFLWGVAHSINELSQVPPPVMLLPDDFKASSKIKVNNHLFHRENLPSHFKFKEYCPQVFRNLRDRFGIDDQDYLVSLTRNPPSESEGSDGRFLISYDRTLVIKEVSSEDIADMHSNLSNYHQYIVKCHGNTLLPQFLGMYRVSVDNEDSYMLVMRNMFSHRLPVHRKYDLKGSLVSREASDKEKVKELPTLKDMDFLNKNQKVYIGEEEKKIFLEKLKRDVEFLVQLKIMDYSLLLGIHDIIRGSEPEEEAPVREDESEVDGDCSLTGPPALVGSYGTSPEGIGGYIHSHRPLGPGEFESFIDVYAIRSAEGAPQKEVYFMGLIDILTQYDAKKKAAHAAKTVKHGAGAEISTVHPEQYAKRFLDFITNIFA
Nature of the assay: Selectivity interaction (KinomeScan (DiscoverX)) EUB0000343a PIP4K2C. The conditions noted are these: at 1 µM.

The target in assay [22] is Serine/threonine-protein kinase Nek1 (Homo sapiens) (UniProt Q96PY6). Nature of the assay: Selectivity interaction (KinomeScan (DiscoverX)) EUB0000343a NEK1. To be noted: at 1 µM.
In assay [23] the target is 5-hydroxytryptamine receptor 1B (Homo sapiens) (UniProt P28222). Nature of the assay: Selectivity interaction (GPCR panel (PDSP screen)) EUB0000343a HTR1B. The conditions noted are these: at 10 µM.
Assay [24] concerns the target Tyrosine-protein kinase JAK1 (Homo sapiens, UniProt P23458). The conditions noted are these: at 1 µM.
Assay [25] addresses T6, Tyrosine-protein kinase ABL1 (Homo sapiens, UniProt P00519). To be noted: at 20 µM.
Assay [26] deals with T6, Tyrosine-protein kinase ABL1. The conditions noted are these: at 20 µM. This is another data set of the same source.
The target in assay [27] is T4, Serine/threonine-protein kinase LATS2 (Homo sapiens). Nature of the assay: Selectivity interaction (KinomeScan (DiscoverX)) EUB0000314b LATS2. The conditions noted are these: at 1 µM.
In assay [28] the target is Gamma-aminobutyric acid receptor subunit beta-2 (Homo sapiens) (UniProt P47870). Nature of the assay: Selectivity interaction (Eurofins-Panlabs panel (at Boehringer Ingelheim)) EUB0000314b GABRB2. The conditions noted are these: at 10 µM.
Assay [29] has as its target T1, D(1B) dopamine receptor. Nature of the assay: Selectivity interaction (GPCR panel (PDSP screen)) EUB0000314b DRD5. The conditions noted are these: at 10 µM.
Assay [30] deals with Beta-1 adrenergic receptor (Homo sapiens) (UniProt P08588). Nature of the assay: Selectivity interaction (Eurofins-Panlabs panel (at Boehringer Ingelheim)) EUB0000314b ADRB1. To be noted: at 10 µM.

T2 sequence (Q9Y2H1 2-464 limits assumed): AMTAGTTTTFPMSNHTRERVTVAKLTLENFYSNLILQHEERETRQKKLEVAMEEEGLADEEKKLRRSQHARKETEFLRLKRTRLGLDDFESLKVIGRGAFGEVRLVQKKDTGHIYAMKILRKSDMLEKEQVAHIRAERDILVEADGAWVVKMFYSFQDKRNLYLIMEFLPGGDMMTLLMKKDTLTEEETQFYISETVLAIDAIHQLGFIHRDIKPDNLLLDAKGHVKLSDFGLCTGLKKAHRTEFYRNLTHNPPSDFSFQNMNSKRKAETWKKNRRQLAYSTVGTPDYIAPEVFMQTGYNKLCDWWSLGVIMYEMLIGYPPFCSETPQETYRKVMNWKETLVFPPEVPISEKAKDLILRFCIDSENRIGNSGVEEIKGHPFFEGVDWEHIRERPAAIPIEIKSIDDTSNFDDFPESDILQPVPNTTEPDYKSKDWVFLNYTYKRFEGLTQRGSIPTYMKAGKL
T1 sequence (P21918 whole entry): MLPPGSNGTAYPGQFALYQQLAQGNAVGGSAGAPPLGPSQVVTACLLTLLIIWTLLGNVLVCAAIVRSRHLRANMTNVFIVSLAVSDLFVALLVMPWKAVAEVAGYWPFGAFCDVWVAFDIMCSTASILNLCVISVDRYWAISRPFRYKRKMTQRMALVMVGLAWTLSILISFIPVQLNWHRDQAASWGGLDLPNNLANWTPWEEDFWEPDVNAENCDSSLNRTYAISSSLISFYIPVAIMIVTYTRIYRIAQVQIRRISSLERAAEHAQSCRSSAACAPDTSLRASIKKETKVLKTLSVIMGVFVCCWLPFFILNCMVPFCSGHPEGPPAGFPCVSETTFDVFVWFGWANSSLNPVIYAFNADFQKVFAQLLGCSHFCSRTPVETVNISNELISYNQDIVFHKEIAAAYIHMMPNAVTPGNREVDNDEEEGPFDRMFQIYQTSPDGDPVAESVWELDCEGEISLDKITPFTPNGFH
T6 sequence (P00519 whole entry): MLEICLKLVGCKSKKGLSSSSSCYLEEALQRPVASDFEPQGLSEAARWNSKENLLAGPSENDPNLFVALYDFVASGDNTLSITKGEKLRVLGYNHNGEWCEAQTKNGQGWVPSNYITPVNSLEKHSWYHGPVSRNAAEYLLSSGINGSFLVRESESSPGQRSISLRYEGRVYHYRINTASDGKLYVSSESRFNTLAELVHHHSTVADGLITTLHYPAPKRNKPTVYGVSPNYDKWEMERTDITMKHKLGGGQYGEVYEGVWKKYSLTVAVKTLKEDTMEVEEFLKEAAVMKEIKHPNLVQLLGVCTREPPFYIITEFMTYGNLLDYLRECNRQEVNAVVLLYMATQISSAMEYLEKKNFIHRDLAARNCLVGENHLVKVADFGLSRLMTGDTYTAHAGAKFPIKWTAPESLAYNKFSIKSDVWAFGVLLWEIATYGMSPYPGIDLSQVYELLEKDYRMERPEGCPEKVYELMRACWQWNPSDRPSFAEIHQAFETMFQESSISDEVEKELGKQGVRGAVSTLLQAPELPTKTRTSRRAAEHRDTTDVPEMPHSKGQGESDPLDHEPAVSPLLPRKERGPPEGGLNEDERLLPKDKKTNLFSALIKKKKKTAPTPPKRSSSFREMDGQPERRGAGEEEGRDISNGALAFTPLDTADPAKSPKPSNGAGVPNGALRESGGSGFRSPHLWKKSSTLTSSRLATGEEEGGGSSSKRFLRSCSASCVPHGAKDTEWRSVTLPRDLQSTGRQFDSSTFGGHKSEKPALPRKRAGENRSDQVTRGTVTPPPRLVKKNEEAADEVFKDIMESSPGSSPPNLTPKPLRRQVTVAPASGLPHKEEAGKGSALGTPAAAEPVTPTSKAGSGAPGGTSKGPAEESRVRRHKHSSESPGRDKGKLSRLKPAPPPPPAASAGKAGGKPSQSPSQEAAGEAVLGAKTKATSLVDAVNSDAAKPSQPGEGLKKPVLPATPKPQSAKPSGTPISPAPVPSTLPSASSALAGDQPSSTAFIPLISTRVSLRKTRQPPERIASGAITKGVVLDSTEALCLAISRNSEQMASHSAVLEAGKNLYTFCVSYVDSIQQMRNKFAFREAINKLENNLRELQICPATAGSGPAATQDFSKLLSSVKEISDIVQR
Ribosomal protein S6 kinase alpha-1 (Homo sapiens), sequence (Q15418 whole entry, looked up): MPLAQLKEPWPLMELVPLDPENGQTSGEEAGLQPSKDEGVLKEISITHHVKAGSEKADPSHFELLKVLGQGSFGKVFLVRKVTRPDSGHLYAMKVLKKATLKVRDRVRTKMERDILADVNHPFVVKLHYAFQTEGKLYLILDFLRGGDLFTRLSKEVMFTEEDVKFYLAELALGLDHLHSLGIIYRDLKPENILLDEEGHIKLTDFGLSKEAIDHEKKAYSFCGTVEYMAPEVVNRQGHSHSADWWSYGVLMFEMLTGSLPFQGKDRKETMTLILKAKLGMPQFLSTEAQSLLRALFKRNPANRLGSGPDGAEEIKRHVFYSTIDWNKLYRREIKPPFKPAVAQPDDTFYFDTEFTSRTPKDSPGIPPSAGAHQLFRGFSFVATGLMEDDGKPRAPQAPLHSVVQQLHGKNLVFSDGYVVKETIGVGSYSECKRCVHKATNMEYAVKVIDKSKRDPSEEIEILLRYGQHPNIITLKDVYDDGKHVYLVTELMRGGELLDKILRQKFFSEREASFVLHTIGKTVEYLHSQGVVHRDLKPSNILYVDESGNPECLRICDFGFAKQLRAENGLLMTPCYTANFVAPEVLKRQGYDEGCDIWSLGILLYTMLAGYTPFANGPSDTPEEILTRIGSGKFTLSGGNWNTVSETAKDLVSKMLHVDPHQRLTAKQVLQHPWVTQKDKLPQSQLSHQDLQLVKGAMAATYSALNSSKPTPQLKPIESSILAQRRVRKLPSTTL
Serine/threonine-protein kinase tousled-like 1 (Homo sapiens), sequence (Q9UKI8 whole entry): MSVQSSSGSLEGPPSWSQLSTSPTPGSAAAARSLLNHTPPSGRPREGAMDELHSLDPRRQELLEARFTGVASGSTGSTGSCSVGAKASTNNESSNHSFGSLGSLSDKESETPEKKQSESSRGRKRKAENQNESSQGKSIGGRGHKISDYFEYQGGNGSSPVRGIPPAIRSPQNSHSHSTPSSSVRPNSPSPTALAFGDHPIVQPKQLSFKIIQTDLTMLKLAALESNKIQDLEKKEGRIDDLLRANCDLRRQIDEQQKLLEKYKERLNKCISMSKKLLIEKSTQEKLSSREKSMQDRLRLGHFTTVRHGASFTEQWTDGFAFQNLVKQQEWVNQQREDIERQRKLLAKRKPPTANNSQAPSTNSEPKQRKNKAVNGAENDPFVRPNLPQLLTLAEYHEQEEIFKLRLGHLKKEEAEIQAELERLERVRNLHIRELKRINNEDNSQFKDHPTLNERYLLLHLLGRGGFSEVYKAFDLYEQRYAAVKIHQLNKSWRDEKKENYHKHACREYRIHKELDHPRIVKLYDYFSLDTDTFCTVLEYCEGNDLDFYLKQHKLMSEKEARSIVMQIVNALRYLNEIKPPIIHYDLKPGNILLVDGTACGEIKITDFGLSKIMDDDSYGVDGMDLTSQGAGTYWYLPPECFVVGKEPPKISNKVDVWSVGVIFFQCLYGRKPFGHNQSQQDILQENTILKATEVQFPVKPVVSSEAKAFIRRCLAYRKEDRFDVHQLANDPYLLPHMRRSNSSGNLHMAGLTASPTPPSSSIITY
Tyrosine-protein kinase JAK1, sequence (P23458 whole entry): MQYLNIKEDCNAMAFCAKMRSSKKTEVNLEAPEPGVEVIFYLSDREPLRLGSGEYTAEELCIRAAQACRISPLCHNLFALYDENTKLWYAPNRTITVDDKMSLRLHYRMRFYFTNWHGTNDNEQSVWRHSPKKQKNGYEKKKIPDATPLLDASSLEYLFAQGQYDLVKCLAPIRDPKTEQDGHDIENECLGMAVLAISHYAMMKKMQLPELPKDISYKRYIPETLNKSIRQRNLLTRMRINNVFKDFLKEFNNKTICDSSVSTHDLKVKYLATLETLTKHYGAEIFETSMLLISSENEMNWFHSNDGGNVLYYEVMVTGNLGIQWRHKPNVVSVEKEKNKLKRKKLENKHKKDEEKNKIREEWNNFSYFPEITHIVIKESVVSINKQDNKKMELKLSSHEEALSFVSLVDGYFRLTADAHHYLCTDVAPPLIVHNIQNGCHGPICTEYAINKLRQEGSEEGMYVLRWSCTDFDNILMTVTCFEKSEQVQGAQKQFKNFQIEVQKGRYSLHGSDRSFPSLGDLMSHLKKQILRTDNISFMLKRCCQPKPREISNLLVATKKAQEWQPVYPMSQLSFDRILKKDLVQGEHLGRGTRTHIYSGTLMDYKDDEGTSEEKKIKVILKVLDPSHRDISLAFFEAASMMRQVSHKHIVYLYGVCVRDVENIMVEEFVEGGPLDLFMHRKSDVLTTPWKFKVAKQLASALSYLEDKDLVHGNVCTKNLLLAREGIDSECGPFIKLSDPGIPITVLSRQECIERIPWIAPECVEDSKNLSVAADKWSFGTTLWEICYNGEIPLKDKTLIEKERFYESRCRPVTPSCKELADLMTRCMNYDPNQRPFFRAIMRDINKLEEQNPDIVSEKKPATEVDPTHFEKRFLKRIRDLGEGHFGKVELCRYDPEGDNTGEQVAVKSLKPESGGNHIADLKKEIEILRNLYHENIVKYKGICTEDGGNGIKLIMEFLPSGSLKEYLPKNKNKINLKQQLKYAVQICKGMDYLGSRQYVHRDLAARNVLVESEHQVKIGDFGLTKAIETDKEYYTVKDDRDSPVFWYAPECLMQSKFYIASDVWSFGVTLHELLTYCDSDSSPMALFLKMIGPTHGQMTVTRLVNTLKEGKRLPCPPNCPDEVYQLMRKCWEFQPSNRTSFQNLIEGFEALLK
Aurora kinase B, sequence (Q96GD4 whole entry): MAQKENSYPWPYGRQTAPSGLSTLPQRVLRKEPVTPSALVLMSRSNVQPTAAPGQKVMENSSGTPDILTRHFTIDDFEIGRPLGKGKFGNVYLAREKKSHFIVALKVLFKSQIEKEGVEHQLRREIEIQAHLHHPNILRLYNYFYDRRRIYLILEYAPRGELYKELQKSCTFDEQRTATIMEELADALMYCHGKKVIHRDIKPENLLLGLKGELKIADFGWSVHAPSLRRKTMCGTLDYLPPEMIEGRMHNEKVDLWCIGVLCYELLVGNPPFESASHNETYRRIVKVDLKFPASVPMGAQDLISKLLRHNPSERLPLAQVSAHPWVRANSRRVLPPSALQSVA

Consider `CCS(=O)(=O)c1cc2cc(C[C@@](O)(CC(C)(C)c3ccc(F)cc3C(N)=O)C(F)(F)F)[nH]c2cn1`, for which the % of control was found to be 0% in [1]; 0% in assay [3]; 38% in assay [6]; 0% in [7]; 0% in [8]; 0% in assay [9]. The same compound displayed a % of control in [10] of 0%. Moreover, the % of inhibition in [2] was found to be 21%; in assay [4], 28%; at D(1B) dopamine receptor [5], 32%.
Consider `C[C@@]1(Cc2ccc(C#N)cc2)C(=O)N(c2cc(Cl)cc(Cl)c2)c2ncc(C(=O)NC3(c4nc(C5CCC5)no4)CC3)n21`, for which the % of control in [11] amounted to 12%; in assay [12], 40%; in [13], 48%; in assay [14], 0%.
In the case of `CN(C)C(=O)Cn1cc(-c2nc(C3(c4ccc(-c5cnc(N)nc5)cc4)CC3)no2)cn1`, the % of control came to 46% in assay [15], 41% in assay [16], 41% at Aurora kinase B and 44% in assay [17].
With `CS(=O)(=O)c1cc(C2(NC(=O)c3cncc4c3cnn4-c3ccc(F)cc3)CC2)ccn1`, the results for the % of control in assay [18] and in assay [19] were 34% and 43%, respectively. The % of inhibition in assay [20] amounted to 71%.
`CS(=O)(=O)NCC[C@H](NC(=O)c1cncc2c1cnn2-c1ccc(F)cc1)c1ccnc(S(C)(=O)=O)c1`: the % of control in assay [21] came out at 0%; in assay [22], 45%. The % of inhibition in [23] was 47.7%.
Consider `CN(C)C(=O)Cn1cc(-c2nc([C@@](C)(c3ccc(-c4cnc(N)nc4)cc3)C3CC3)no2)cn1`, for which the % of control in [24] and in [25] was 33% in each case. The compound also yielded a % of inhibition in assay [26] of 67%.
As for `CCS(=O)(=O)c1cc2cc(C[C@](O)(CC(C)(C)c3ccc(F)cc3C(N)=O)C(F)(F)F)[nH]c2cn1`, the figures for the % of control in [27], in assay [28] and in [30] were 40%, 75% and 75%, respectively. On D(1B) dopamine receptor [29], this compound had a % of inhibition of 34%.
